Assay results from patent US20110195900A1, “PEPTIDIC PTH RECEPTOR AGONISTS” (FERRING B.V., priority 2008, published 2011).
Non-standard residues stand in square brackets, D forms with d. Residues, ends and D or L forms follow the SMILES beside them. 1Nal = N[C@@H](Cc1cccc2ccccc12)C(=O)O; 2Nal = N[C@@H](Cc1ccc2ccccc2c1)C(=O)O; β3hI = CC[C@H](C)[C@H](N)CC(=O)O; β3hR = N=C(N)NCCC[C@H](N)CC(=O)O; β3hF = N[C@H](CC(=O)O)Cc1ccccc1; hSer = N[C@@H](CCO)C(=O)O; Nle = CCCC[C@H](N)C(=O)O; Aib = CC(C)(N)C(=O)O

Biological target: T1, human PTH-1 receptor (Homo sapiens, UniProt Q03431)
T1 construct: expressed in transfected cells; host or cells: HEK-293
T1 sequence (Q03431 27-593): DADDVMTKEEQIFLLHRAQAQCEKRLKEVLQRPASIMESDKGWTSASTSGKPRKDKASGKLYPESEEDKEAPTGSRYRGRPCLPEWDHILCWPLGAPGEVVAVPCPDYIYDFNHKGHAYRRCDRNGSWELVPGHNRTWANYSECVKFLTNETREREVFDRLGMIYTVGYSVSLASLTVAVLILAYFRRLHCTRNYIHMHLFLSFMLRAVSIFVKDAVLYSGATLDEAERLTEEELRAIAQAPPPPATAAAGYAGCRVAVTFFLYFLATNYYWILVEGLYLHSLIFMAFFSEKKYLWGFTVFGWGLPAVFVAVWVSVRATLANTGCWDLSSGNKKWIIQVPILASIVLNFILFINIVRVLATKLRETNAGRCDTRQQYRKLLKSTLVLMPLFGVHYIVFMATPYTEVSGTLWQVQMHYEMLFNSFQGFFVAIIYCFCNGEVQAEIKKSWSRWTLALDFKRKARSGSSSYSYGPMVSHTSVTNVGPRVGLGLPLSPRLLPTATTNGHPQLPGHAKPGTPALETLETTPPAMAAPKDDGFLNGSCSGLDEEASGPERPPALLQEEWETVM
Test: Reporter gene assay (CRE-luciferase) for agonist activity in transiently transfected HEK-293 cells
Assay type: cell-based
Conditions: for hPTHR-2/hPTHR-1: Table 3, selectivity for hPTH-1 receptor over hPTH-2 receptor
Description: Agonist activity of compounds on the human PTH-1 receptor was determined in a reporter gene assay by transiently transfecting HEK-293 cells with plasmids encoding human PTH-1 receptor under control of the SV40 promoter and a luciferase reporter gene under control of cAMP responsive elements (CRE). See Himmler et al, J. Recept. Res. 13 (1993) 79-94, for further guidance on this assay. Transfected cells were exposed to serial dilutions of compounds for 4-5 hours followed by lysis of cells, determination of luciferase activity, and determination of compound efficacies and EC50 values through non-linear regression.
PTH (1-34) was used as an internal control in each experiment and compounds were tested in at least three independent experiments. To determine selectivity, compounds were tested in luciferase-based transcriptional reporter gene assays expressing the human PTH-2 receptor.

Row | Compound | EC50 | hPTHR-2/hPTHR-1 (ratio of EC50 values) | Selectivity hPTHR-2/hPTHR-1 (Table 4 comparison data, ratio of EC50 values)
1 | CCCC[C@H](NC(=O)[C@H](CC(C)C)NC(=O)[C@H](CCC(N)=O)NC(=O)[C@@H](NC(=O)[C@H](CCC(=O)O)NC(=O)[C@H](CO)NC(=O)[C@@H](NC(=O)[C@@H](N)CO)C(C)C)[C@@H](C)CC)C(=O)N[C@@H](Cc1c[nH]cn1)C(=O)N[C@@H](CO)C(=O)N[C@@H](CC(C)C)C(=O)NCC(=O)N[C@@H](CCCCN)C(=O)N[C@@H](Cc1c[nH]cn1)C(=O)N[C@@H](CC(C)C)C(=O)N[C@@H](CCCCN)C(=O)N[C@@H](CO)C(=O)N[C@H](CC(=O)N[C@@H](CCC(=O)O)C(=O)N[C@@H](CCCNC(=N)N)C(=O)N[C@H](C(=O)N[C@@H](CCC(=O)O)C(=O)N[C@@H](Cc1cccc2ccccc12)C(=O)N[C@@H](CC(C)C)C(=O)N[C@@H](CCCNC(=N)N)C(=O)N[C@@H](CCCCN)C(=O)N[C@@H](CC(C)C)C(=O)N[C@@H](CC(C)C)C(=O)N[C@@H](CCC(N)=O)C(=O)N[C@@H](CCCNC(=N)N)C(=O)N[C@H](C(=O)N[C@@H](Cc1c[nH]cn1)C(=O)N[C@@H](CCC(=O)O)C(=O)N[C@@H](Cc1ccccc1)C(N)=O)C(C)C)C(C)C)[C@@H](C)CC [SEQ ID NO: 40, [Nle^8, Ser^10, Lys^16, β-hIle^18,1-Nal^23, Leu^27, Arg^30, Glu^33] hPTH(1-34)-NH2] (H-SVSEIQL[Nle]HSLGKHLKS[β3hI]ERVE[1Nal]LRKLLQRVHEF-NH2) | 120 pM | 69 | 
2 | CCCC[C@H](NC(=O)[C@H](CC(C)C)NC(=O)[C@H](CCC(N)=O)NC(=O)[C@@H](NC(=O)[C@H](CCC(=O)O)NC(=O)[C@H](CO)NC(=O)[C@@H](NC(=O)[C@@H](N)CO)C(C)C)[C@@H](C)CC)C(=O)N[C@@H](Cc1c[nH]cn1)C(=O)N[C@@H](CC(N)=O)C(=O)N[C@@H](CC(C)C)C(=O)NCC(=O)N[C@@H](CCCCN)C(=O)N[C@@H](Cc1c[nH]cn1)C(=O)N[C@@H](CC(C)C)C(=O)N[C@@H](CC(N)=O)C(=O)N[C@@H](CO)C(=O)N[C@H](CC(=O)N[C@@H](CCC(=O)O)C(=O)N[C@@H](CCCNC(=N)N)C(=O)N[C@H](C(=O)N[C@@H](CCC(=O)O)C(=O)N[C@@H](Cc1cccc2ccccc12)C(=O)N[C@@H](CC(C)C)C(=O)N[C@@H](CCCNC(=N)N)C(=O)N[C@@H](CCCCN)C(=O)N[C@@H](CC(C)C)C(=O)N[C@@H](CC(C)C)C(=O)N[C@@H](CCC(N)=O)C(=O)N[C@@H](CC(=O)O)C(=O)N[C@H](C(=O)N[C@@H](Cc1c[nH]cn1)C(=O)N[C@@H](CC(N)=O)C(=O)N[C@@H](Cc1ccccc1)C(=O)O)C(C)C)C(C)C)[C@@H](C)CC [SEQ ID NO: 9, [Nle^8, β-hIle^18,1-Nal^23, Leu^27] hPTH (1-34)-OH] (H-SVSEIQL[Nle]HNLGKHLNS[β3hI]ERVE[1Nal]LRKLLQDVHNF-OH; N-terminus assumed) | 140 pM | 158 | 
3 | CCCC[C@H](NC(=O)[C@H](CC(C)C)NC(=O)[C@H](CCC(N)=O)NC(=O)[C@@H](NC(=O)[C@H](CCC(=O)O)NC(=O)[C@H](CO)NC(=O)[C@@H](NC(=O)[C@@H](N)CO)C(C)C)[C@@H](C)CC)C(=O)N[C@@H](Cc1c[nH]cn1)C(=O)N[C@@H](CC(N)=O)C(=O)N[C@@H](CC(C)C)C(=O)NCC(=O)N[C@@H](CCCCN)C(=O)N[C@@H](Cc1c[nH]cn1)C(=O)N[C@@H](CC(C)C)C(=O)N[C@@H](CC(N)=O)C(=O)N[C@@H](CO)C(=O)N[C@@H](CCCNC(=N)N)CC(=O)N[C@@H](CCC(=O)O)C(=O)N[C@@H](CCCNC(=N)N)C(=O)N[C@H](C(=O)N[C@@H](CCC(=O)O)C(=O)N[C@@H](Cc1ccc2ccccc2c1)C(=O)N[C@@H](CC(C)C)C(=O)N[C@@H](CCCNC(=N)N)C(=O)N[C@@H](CCCCN)C(=O)N[C@@H](CCCCN)C(=O)N[C@@H](CC(C)C)C(=O)N[C@@H](CCC(N)=O)C(=O)N[C@@H](CC(=O)O)C(=O)N[C@H](C(=O)N[C@@H](Cc1c[nH]cn1)C(=O)N[C@@H](CC(N)=O)C(=O)N[C@@H](Cc1ccccc1)C(N)=O)C(C)C)C(C)C [SEQ ID NO: 54, [Nle^8, β-hArg^18,2-Nal^23] hPTH (1-34)-NH2] (H-SVSEIQL[Nle]HNLGKHLNS[β3hR]ERVE[2Nal]LRKKLQDVHNF-NH2) |  |  | 147
4 | CCCC[C@H](NC(=O)[C@H](CC(C)C)NC(=O)[C@H](CCC(N)=O)NC(=O)[C@@H](NC(=O)[C@H](CCC(=O)O)NC(=O)[C@H](CO)NC(=O)[C@@H](NC(=O)C(C)(C)N)C(C)C)[C@@H](C)CC)C(=O)N[C@@H](Cc1c[nH]cn1)C(=O)N[C@@H](CC(N)=O)C(=O)N[C@@H](CC(C)C)C(=O)NCC(=O)N[C@@H](CCCCN)C(=O)N[C@@H](Cc1c[nH]cn1)C(=O)N[C@@H](CC(C)C)C(=O)N[C@@H](CC(N)=O)C(=O)N[C@H](CC(=O)N[C@@H](CCOC)C(=O)N[C@@H](CCC(=O)O)C(=O)N[C@@H](CCCNC(=N)N)C(=O)N[C@H](C(=O)N[C@@H](CCC(=O)O)C(=O)N[C@@H](Cc1cccc2ccccc12)C(=O)N[C@@H](CC(C)C)C(=O)N[C@@H](CCCNC(=N)N)C(=O)N[C@@H](CCCCN)C(=O)N[C@@H](CC(C)C)C(=O)N[C@@H](CC(C)C)C(=O)N[C@@H](CCC(N)=O)C(=O)N[C@@H](CC(=O)O)C(=O)N[C@H](C(=O)N[C@@H](Cc1c[nH]cn1)C(=O)N[C@@H](CC(N)=O)C(=O)N[C@@H](Cc1ccccc1)C(N)=O)C(C)C)C(C)C)Cc1ccccc1 [SEQ ID NO: 48, [Aib^1, Nle^8, β-hPhe^17, hSer(OMe)^18,1-Nal^23, Leu^27] hPTH-(1-34)-NH2] (H-[Aib]VSEIQL[Nle]HNLGKHLN[β3hF][hSer](Me)ERVE[1Nal]LRKLLQDVHNF-NH2) | 100 pM | 1152 | 
5 | CCCC[C@H](NC(=O)[C@H](CC(C)C)NC(=O)[C@H](CCC(N)=O)NC(=O)[C@@H](NC(=O)[C@H](CCC(=O)O)NC(=O)[C@H](CO)NC(=O)[C@@H](NC(=O)[C@@H](N)CO)C(C)C)[C@@H](C)CC)C(=O)N[C@@H](Cc1c[nH]cn1)C(=O)N[C@@H](CC(N)=O)C(=O)N[C@@H](CC(C)C)C(=O)NCC(=O)N[C@@H](CCCCN)C(=O)N[C@@H](Cc1c[nH]cn1)C(=O)N[C@@H](CC(C)C)C(=O)N[C@@H](CO)C(=O)N[C@@H](CO)C(=O)N[C@H](CC(=O)N[C@@H](CCC(=O)O)C(=O)N[C@@H](CCCNC(=N)N)C(=O)N[C@H](C(=O)N[C@@H](CCC(=O)O)C(=O)N[C@@H](Cc1cccc2ccccc12)C(=O)N[C@@H](CC(C)C)C(=O)N[C@@H](CCCNC(=N)N)C(=O)N[C@@H](CCCCN)C(=O)N[C@@H](CC(C)C)C(=O)N[C@@H](CC(C)C)C(=O)N[C@@H](CCC(N)=O)C(=O)N[C@@H](CC(=O)O)C(=O)N[C@H](C(=O)N[C@@H](Cc1c[nH]cn1)C(=O)N[C@@H](CC(N)=O)C(=O)N[C@@H](Cc1ccccc1)C(N)=O)C(C)C)C(C)C)[C@@H](C)CC [SEQ ID NO: 22, [Nle^8, Ser^16, β-hIle^18,1-Nal^23, Leu^27] hPTH (1-34)-NH2] (H-SVSEIQL[Nle]HNLGKHLSS[β3hI]ERVE[1Nal]LRKLLQDVHNF-NH2) | 190 pM | 101 | 
